In publication PMC11012124, “Synthesis of Novel Triazine-Based Chalcones and 8,9-dihydro-7H-pyrimido[4,5-b][1,4]diazepines as Potential Leads in the Search of Anticancer, Antibacterial and Antifungal Agents” (International Journal of Molecular Sciences, 2024):

Experiments:
NCI-H522 = test: cells; conditions: Homo sapiens, NCI-H522, 48 h; for CC50: read-out: LC50
MOLT-4 = test: cells; conditions: Homo sapiens, MOLT-4, 48 h; for CC50: read-out: LC50
UACC-62 = test: cells; conditions: Homo sapiens, UACC-62, 48 h; for CC50: read-out: LC50
CAKI-1 = test: cells; conditions: Homo sapiens, CAKI-1, 48 h; for CC50: read-out: LC50
MDA-MB-231/ATCC = test: cells; conditions: Homo sapiens, MDA-MB-231, 48 h; for CC50: read-out: LC50
KM12 = test: cells; conditions: Homo sapiens, KM12, 48 h; for CC50: read-out: LC50
EKVX = test: cells; conditions: Homo sapiens, 48 h; for CC50: read-out: LC50
MDA-MB-468 = test: cells; conditions: Homo sapiens, MDA-MB-468, 48 h; for CC50: read-out: LC50
T-47D = test: cells; conditions: Homo sapiens, T47D, 48 h; for CC50: read-out: LC50
[1] = Hemolytic activity, spectrophotometric; type: cell-based, human; conditions: human, human red blood cells (huRBC), 5% hematocrit, 200 μg/mL, 37 °C
OVCAR-8 = test: cells; conditions: Homo sapiens, OVCAR-8, 48 h; for CC50: read-out: LC50
NCI-H322M = test: cells; conditions: Homo sapiens, 48 h; for CC50: read-out: LC50
UO-31 = test: cells; conditions: Homo sapiens, UO-31, 48 h; for CC50: read-out: LC50
HOP-62 = test: cells; conditions: Homo sapiens, HOP-62, 48 h; for CC50: read-out: LC50
HCT-116 = test: cells; conditions: Homo sapiens, HCT-116, 48 h; for CC50: read-out: LC50
MALME-3M = test: cells; conditions: Homo sapiens, 48 h; for CC50: read-out: LC50
RPMI-8226 = test: cells; conditions: Homo sapiens, RPMI-8226, 48 h; for CC50: read-out: LC50
COLO 205 = test: cells; conditions: Homo sapiens, COLO 205, 48 h; for CC50: read-out: LC50
HS 578T = test: cells; conditions: Homo sapiens, 48 h; for CC50: read-out: LC50
HT29 = test: cells; conditions: Homo sapiens, HT-29, 48 h; for CC50: read-out: LC50
SF-539 = test: cells; conditions: Homo sapiens, SF-539, 48 h; for CC50: read-out: LC50, SF-539, 48 h
SW-620 = test: cells; conditions: Homo sapiens, SW-620, 48 h; for CC50: read-out: LC50
U251 = test: cells; conditions: Homo sapiens, U-251, 48 h; for GI50: U251, 48 h; for CC50: read-out: LC50
DU-145 = test: cells; conditions: Homo sapiens, DU-145, 48 h; for CC50: read-out: LC50
HCT-15 = test: cells; conditions: Homo sapiens, HCT-15, 48 h; for CC50: read-out: LC50
M14 = test: cells; conditions: Homo sapiens, M14, 48 h; for CC50: read-out: LC50
SNB-19 = test: cells; conditions: Homo sapiens, SNB-19, 48 h; for CC50: read-out: LC50
HCC-2998 = test: cells; conditions: Homo sapiens, HCC 2998, 48 h; for CC50: read-out: LC50
ACHN = test: cells; conditions: Homo sapiens, 48 h; for CC50: read-out: LC50
PC-3 = test: cells; conditions: Homo sapiens, PC-3, 48 h; for CC50: read-out: LC50
RXF 393 = test: cells; conditions: Homo sapiens, RXF 393, 48 h; for CC50: read-out: LC50
SNB-75 = test: cells; conditions: Homo sapiens, SNB-75, 48 h; for CC50: read-out: LC50
SK-OV-3 = test: cells; conditions: Homo sapiens, SK-OV-3, 48 h; for CC50: read-out: LC50
BT-549 = test: cells; conditions: Homo sapiens, BT-549, 48 h; for CC50: read-out: LC50
60 cancer cell lines = test: NCI-60 one-dose screen (10 μM); type: cell-based; conditions: Homo sapiens; one dose of 10 μM, mean over 60 cancer cell lines; read-out: Mean Growth Percent (MGP)
Text: Additionally, the mean of the growth percentages (MGP) of each compound against all the 60 cancer cell lines is also reported, which is used as one of the selection criteria to continue with tests at five concentration doses.

A549/ATCC = test: cells; conditions: Homo sapiens, A549, 48 h; for CC50: read-out: LC50
SK-MEL-28 = test: cells; conditions: Homo sapiens, SK-MEL-28, 48 h; for CC50: read-out: LC50

## COc1cc(/C=C/C(=O)c2ccc(S(=O)(=O)NCCNc3nc(N(C)C)nc(N4CCOCC4)n3)cc2)cc(OC)c1OC [23d]
NCI-H522
  GI50: 1.66 µM
  CC50: 6.37 µM
MOLT-4
  GI50: 2.23 µM
  CC50: > 100 µM
UACC-62
  GI50: 2.14 µM
  CC50: 22.8 µM
CAKI-1
  GI50: 10.6 µM
  CC50: 51 µM
MDA-MB-231/ATCC
  GI50: 2.9 µM
  CC50: 36.7 µM
KM12
  GI50: 1.7 µM
  CC50: 6.52 µM
EKVX
  GI50: 3.74 µM
  CC50: 82.3 µM
MDA-MB-468
  GI50: 1.69 µM
  CC50: 6.66 µM
T-47D
  GI50: 5.74 µM
  CC50: 71.5 µM
[1]
  hemolysis at 24 h, 200 µg/mL: 0.2%
OVCAR-8
  GI50: 2.3 µM
  CC50: 36.5 µM
NCI-H322M
  GI50: 7.82 µM
  CC50: 48.5 µM
UO-31
  GI50: 1.57 µM
  CC50: 6.32 µM
HOP-62
  GI50: 2.66 µM
  CC50: 32.1 µM
HCT-116
  GI50: 1.56 µM
  CC50: 5.92 µM
MALME-3M
  GI50: 1.97 µM
  CC50: 9.42 µM
RPMI-8226
  GI50: 1.39 µM
  CC50: > 100 µM
COLO 205
  GI50: 2.14 µM
  CC50: 16.6 µM
HS 578T
  GI50: 2.29 µM
  CC50: > 100 µM
HT29
  GI50: 1.72 µM
  CC50: 5.93 µM
SF-539
  GI50: 1.81 µM
  CC50: 6.29 µM
SW-620
  GI50: 1.9 µM
  CC50: 7.42 µM
U251
  GI50: 1.54 µM
  CC50: 5.54 µM
DU-145
  GI50: 3.31 µM
  CC50: 34.1 µM
HCT-15
  GI50: 1.82 µM
  CC50: 8.38 µM
M14
  GI50: 2.18 µM
  CC50: 26.9 µM
SNB-19
  GI50: 4.28 µM
  CC50: 41.7 µM
HCC-2998
  GI50: 1.8 µM
  CC50: 5.9 µM
ACHN
  GI50: 1.78 µM
  CC50: 6.75 µM
PC-3
  GI50: 3.76 µM
  CC50: > 100 µM
RXF 393
  GI50: 1.22 µM
  CC50: 8.63 µM
SNB-75
  GI50: 1.56 µM
  CC50: 41.6 µM
SK-OV-3
  GI50: 14.3 µM
  CC50: 52.7 µM
BT-549
  GI50: 2.01 µM
  CC50: 6.91 µM
60 cancer cell lines
  activity at 10 µM: -32.7%
A549/ATCC
  GI50: 3.55 µM
  CC50: 43.9 µM
SK-MEL-28
  GI50: 2.12 µM
  CC50: 13 µM

## Cc1ccc(C2CC(c3ccc(S(=O)(=O)NCCNc4nc(Nc5ccc(F)cc5)nc(N(C)C)n4)cc3)=Nc3c(N)nc(N)nc3N2)cc1 (centres unmarked) [31b]
NCI-H522
  GI50: 21.3 µM
  CC50: > 100 µM
MOLT-4
  GI50: 2.2 µM
  CC50: 7.53 µM
UACC-62
  GI50: 20.9 µM
  CC50: > 100 µM
CAKI-1
  GI50: 8.06 µM
  CC50: > 100 µM
MDA-MB-231/ATCC
  GI50: 3.86 µM
  CC50: > 100 µM
KM12
  GI50: 4.56 µM
  CC50: > 100 µM
EKVX
  GI50: 5.84 µM
  CC50: > 100 µM
MDA-MB-468
  GI50: 2.72 µM
  CC50: 8.52 µM
T-47D
  GI50: 8.75 µM
  CC50: > 100 µM
[1]
  hemolysis at 24 h, 200 µg/mL: 1.7%
OVCAR-8
  CC50: > 100 µM
NCI-H322M
  GI50: > 100 µM
  CC50: > 100 µM
UO-31
  GI50: > 100 µM
  CC50: > 100 µM
HOP-62
  GI50: > 100 µM
  CC50: > 100 µM
HCT-116
  GI50: 3.81 µM
  CC50: > 100 µM
MALME-3M
  GI50: 4.65 µM
  CC50: 33.2 µM
RPMI-8226
  GI50: 2.94 µM
  CC50: > 100 µM
COLO 205
  GI50: 11.5 µM
  CC50: > 100 µM
HS 578T
  GI50: 19.4 µM
  CC50: > 100 µM
HT29
  GI50: 2.27 µM
  CC50: 4.65 µM
SF-539
  GI50: 3.29 µM
  CC50: 78.9 µM
SW-620
  GI50: 8.04 µM
  CC50: > 100 µM
U251
  GI50: 7.08 µM
  CC50: > 100 µM
DU-145
  GI50: > 100 µM
  CC50: > 100 µM
HCT-15
  GI50: 4.95 µM
  CC50: > 100 µM
M14
  GI50: 4.56 µM
  CC50: > 100 µM
SNB-19
  GI50: 13.1 µM
  CC50: > 100 µM
HCC-2998
  GI50: 2.93 µM
  CC50: 41.1 µM
ACHN
  GI50: > 100 µM
  CC50: > 100 µM
PC-3
  GI50: 3.33 µM
  CC50: > 100 µM
RXF 393
  GI50: 2.27 µM
  CC50: 9.12 µM
SNB-75
  GI50: > 100 µM
  CC50: > 100 µM
SK-OV-3
  GI50: > 100 µM
  CC50: > 100 µM
BT-549
  GI50: 5.46 µM
  CC50: 59.4 µM
60 cancer cell lines
  activity at 10 µM: 48.4%
A549/ATCC
  GI50: > 100 µM
  CC50: > 100 µM
SK-MEL-28
  GI50: 26.9 µM
  CC50: > 100 µM
